Tested on: P. falciparum
Test: In vitro evaluation of anti-malarial activity (schizont maturation inhibition)
Type: cell-based
Conditions: Plasmodium falciparum, 24 h
Excerpt: All the tests are run in duplicates with in 96 well flat bottomed tissue culture plate and double dilutions are made for each of the test compound with individual control wells only with the RPMI 1640 and human serum supplement.

## CCN(CC)CCCC(C)Nc1ccnc2cc(Cl)ccc12 (stereo not shown) [Chloroquine]
  IC90: 46 nM

Reference: patent US8282968B2, “Bioactive water fraction from Gomphostemma niveum” (The Director General, Defence Research and Development …, priority 2005, dated 2012)
